Data set [1] has as its system A375 melanoma cells. Put plainly: cells. The format is cell-based, human. The following applies: XTT, 24 h incubation, read-out: IC50, A375 melanoma cell viability. As for the experimental part: A375 cells were seeded in 96 well plates at a density of around 10^5 cells per well in 95 μL of MEM medium and incubated for 24 h, Cells were treated with 5 μL of drugs in a final concentration of 0, 0.3 nM, 1 nM, 3 nM, 10 nM, 30 nM, 100 nM and 300 nM for 24 h. XTT solution was prepared by dissolving 4 mg XTT in 4 mL MEM medium. PMS solution was prepared by dissolving 3 mg of PMS in 1 mL of phosphate buffer saline (PBS). 10 μL of PMS solution was added to 4 mL of XTT solution, and 25 μL of the PMS/XTT mixture was added to each well. The plate was incubated at 37 ° C. for another 2 h culture. Absorbance was measured at 450 nm using a pQuant Universal Microplate Reader (Bio-Tek instruments, Inc., Winooski, VT). Absorbance from no-cells control was subtracted and the percentage of cell viability was calculated as the percentage of absorbance relative to cells treated with medium.
In general terms: Formazan colour is commonly taken as a measure of viable cells.

The conditions of data set [2]: cited from earlier work.
For data set [3], the target named is T1, human MC1R (Homo sapiens, UniProt Q01726).
T1 construct: expressed in transfected cells; host or cells: HEK293 (stably transfected)
T1 sequence (Q01726 whole entry): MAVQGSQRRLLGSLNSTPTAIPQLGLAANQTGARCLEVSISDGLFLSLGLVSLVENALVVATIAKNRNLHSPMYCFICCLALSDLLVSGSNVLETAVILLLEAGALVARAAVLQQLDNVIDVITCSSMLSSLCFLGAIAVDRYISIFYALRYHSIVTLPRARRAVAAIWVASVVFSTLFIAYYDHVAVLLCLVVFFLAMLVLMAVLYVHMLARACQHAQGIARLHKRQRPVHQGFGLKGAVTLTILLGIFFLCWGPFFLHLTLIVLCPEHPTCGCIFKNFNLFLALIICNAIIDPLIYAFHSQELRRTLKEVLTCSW
Description: Competitive binding assay with 125I labelled NDP-α-MSH on whole cells, MC1R. The following applies: for Ki: HEK293 cells overexpressing human MC1R, 125I NDP-α-MSH; for displacement of NDP-α-MSH from MC1R: within micromolar range concentration.
Description: Competitive binding assays were performed on whole cells. Stably transfected HEK293 cell lines overexpressing human MC1R, MC3R, MC4R or MC5R were seeded on 96-well plates 48 h before the assay and grown to 100,000 cells per well. For the assay, the medium was removed, and cells were washed twice with a binding buffer containing minimum essential medium with Earle's salt (MEM, GIBCO), 25 mM HEPES (pH 7.4), 0.2% bovine serum albumin, 1 mM 1,10-phenanthrolone, 0.5 mg/L leupeptin and 200 mg/L bacitracin. Cells were incubated with different concentrations of unlabeled test compounds and ^125I labelled NDP-α-MSH (PerkinElmer, 100,000 cpm/well, 0.1386 nM) for 40 min at 37° C. The medium was subsequently removed, and the cells were washed twice with the binding buffer. The cells were lysed by 50 μL of 0.1 mM NaOH and 50 μL of 1% Triton X-100. The plates were left dry overnight under the hood, and 50 μL of scintillation fluid (OptiPhase SuperMix, PerkinElmer) were added in each well. The radioactivity was measured using MicroBeta 2 microplate counter (PerkinElmer).

Data set [4] deals with A375 malignant melanoma cells. Put plainly: Live-cell confocal microscopy, fluorescence uptake by A375 cells. The format is cell-based, human. Here is the method: (§1) 1 mL of A375 or HEK293 cell suspension (˜5×10^4 cells) were seeded in 35 mm No. 1.5 coverslip glass-bottomed microwell dish (MatTek) and cultured overnight. Cells were gently washed with PBS twice and treated with compound 2 (3 μM) with or without MT-II (30 μM) in phenol red-free, HEPES-supplemented DMEM. After incubation at 37° C. for indicated time, cells were washed three times with PBS before imaging. Images were taken with Zeiss LSM880 inverted confocal microscope with either bright field or laser at […] with 2% laser power and Plan-Apochromat 63×/1.4 Oil DIC M27 objective.

In data set [5] the test system is HEK293 kidney epithelial cells. Put plainly: Live-cell confocal microscopy, fluorescence uptake by HEK293 cells. The class given is cell-based. Particulars: 3 μM, 2.5 h. Here is the method:
as §1

The conditions of data set [6]: linear peptide; cited from earlier work.

Where two headings read alike, the source gives them in different places.

On to `CC[C@@]1(O)C(=O)OCc2c1cc1n(c2=O)Cc2cc3ccccc3nc2-1` [CPT, camptothecin, reference compound], for which the IC50 (in general, the midpoint of a concentration-inhibition curve) in data set [1] (Homo sapiens, A-375) was 47 ± 2 nM. Besides, the solubility result in data set [2] is recorded as “poor solubility”.

For the molecule `CCCC[C@H](NC(=O)CCCCCNC(=O)[C@@H](N)CSSCCOC(=O)O[C@]1(CC)C(=O)OCc2c1cc1n(c2=O)Cc2cc3ccccc3nc2-1)C(=O)N[C@H]1CC(=O)NCCCC[C@@H](C(N)=O)NC(=O)[C@H](Cc2c[nH]c3ccccc23)NC(=O)[C@H](CCCNC(=N)N)NC(=O)[C@@H](Cc2ccccc2)NC(=O)[C@H](Cc2c[nH]cn2)NC1=O` [CPT-MT-II (1)], the IC50 in data set [1] was 16 nM. Further, the affinity in data set [3] (Ki MC1R), expressed as Ki, was 57 nM. Besides, in data set [3] (from Ki values), the “selectivity to MC1R as compared to MC3R, MC4R and MC5R” value is 3-6 fold.

Take `CCCC[C@H](NC(=O)CCCCCNC(=O)[C@@H](N)CSSCCOC(=O)Oc1ccc2c(c1)Oc1cc(O)ccc1C21OC(=O)c2ccccc21)C(=O)N[C@H]1CC(=O)NCCCC[C@@H](C(N)=O)NC(=O)[C@H](Cc2c[nH]c3ccccc23)NC(=O)[C@H](CCCNC(=N)N)NC(=O)[C@@H](Cc2ccccc2)NC(=O)[C@H](Cc2c[nH]cn2)NC1=O` (some centres unmarked) [fluorescein-MT-II (2)]: the “fluorescence uptake by A375 cells” value in data set [4] (3 μM with 30 μM of MT-II, 2.5 h) is recorded as “not observed”; in data set [4] (3 μM, 0.5 h), “No significant fluorescence uptake”; in data set [4] (3 μM, 2.5 h), “strong fluorescence”. Also, in data set [4] (confocal microscopy), the “time for release of fluorescein into A375” value is recorded as “at least 90 minutes”. In addition, the “fluorescence uptake by HEK293 cells compared to A375 cells” value in data set [5] is recorded as “much weaker fluorescence intensity”. Moreover, the Ki (as a rule, the equilibrium dissociation constant of an inhibitor or competing ligand from its target) in data set [3] (read-out: Ki MC1R) stood at 172 nM. Moreover, the figures for the “displacement of NDP-α-MSH from MC1R” value in data set [3] and in data set [3] (listed as fluorescein-MT-II) were “fully displace” and “fully displace NDP-α-MSH”, respectively.

Regarding α-MSH, the half-life entry in data set [6] is “around 10 minutes”.
